Species: Rattus norvegicus
Assay: Open TG-GATES - Regimen: Daily Repeat
Type: toxicity, organism-based, Sprague-Dawley
Parameters: regimen Daily Repeat, gender Male, age 6 weeks
Settings: in vivo, po, 0 mg/kg, route gavage, dose level Control; for APTT / Bas / Eos / Fbg / Hb / Ht / Lym / MCH / MCHC / MCV / Mono / Neu / PT / Plat / RBC / Ret / WBC: tissue Blood; for KIDNEY_L / KIDNEY_R / KIDNEY_TOTAL: tissue Kidney; for LIVER: tissue Liver; for A/G / ALP / ALT / AST / BUN / CRE / Ca / Cl / DBIL / GLC / IP / K / LDH / Na / PL / RALB / TBIL / TC / TG / TP / gamma-GTP: tissue Plasma

SMILES: CN(C)CCC(c1ccc(Cl)cc1)c1ccccn1 (configuration not stated) [CHLORPHENIRAMINE]
- TERMINAL_BW (72 h, time 3 day): 224.6 g
- APTT (72 h, time 3 day): 23.2 s
- Bas (72 h, time 3 day): 0%
- Eos (72 h, time 3 day): 1.2%
- Fbg (72 h, time 3 day): 295.2 mg/dL
- Hb (72 h, time 3 day): 13.4 g/dL
- Ht (72 h, time 3 day): 41.7%
- Lym (72 h, time 3 day): 77.6%
- MCH (72 h, time 3 day): 20.6 pg
- MCHC (72 h, time 3 day): 32.1%
- MCV (72 h, time 3 day): 64.2 fL
- Mono (72 h, time 3 day): 2.8%
- Neu (72 h, time 3 day): 17.4%
- PT (72 h, time 3 day): 14.5 s
- Plat (72 h, time 3 day): 127.5 x10_4/uL
- RBC (72 h, time 3 day): 650.8 x10_4/ul
- Ret (72 h, time 3 day): 6.9%
- WBC (72 h, time 3 day): 76.4 x10_2/uL
- KIDNEY_L (72 h, time 3 day): 0.9 g
- KIDNEY_R (72 h, time 3 day): 0.9 g
- KIDNEY_TOTAL (72 h, time 3 day): 1.9 g
- LIVER (72 h, time 3 day): 10.1 g
- A/G (72 h, time 3 day): 0.9
- ALP (72 h, time 3 day): 1824 IU/L
- ALT (72 h, time 3 day): 44.2 IU/L
- AST (72 h, time 3 day): 69.4 IU/L
- BUN (72 h, time 3 day): 14.6 mg/dL
- CRE (72 h, time 3 day): 0.2 mg/dL
- Ca (72 h, time 3 day): 10.5 mg/dL
- Cl (72 h, time 3 day): 107.2 meq/L
- DBIL (72 h, time 3 day): 0.014 mg/dL
- GLC (72 h, time 3 day): 182.4 mg/dL
- IP (72 h, time 3 day): 7.7 mg/dL
- K (72 h, time 3 day): 4.5 meq/L
- LDH (72 h, time 3 day): 109.4 IU/L
- Na (72 h, time 3 day): 142.2 meq/L
- PL (72 h, time 3 day): 151.6 mg/dL
- RALB (72 h, time 3 day): 2.7 g/dL
- TBIL (72 h, time 3 day): 0.034 mg/dL
- TC (72 h, time 3 day): 79 mg/dL
- TG (72 h, time 3 day): 87.8 mg/dL
- TP (72 h, time 3 day): 5.8 g/dL
- gamma-GTP (72 h, time 3 day): 1.4 IU/L
- TERMINAL_BW ([…], time 7 day): 265.1 g
- TERMINAL_BW ([…], time 14 day): 314.1 g
- TERMINAL_BW ([…], time 28 day): 409.3 g
- APTT ([…], time 7 day): 18.7 s
- Bas ([…], time 7 day): 0%
- Eos ([…], time 7 day): 0.8%
- Fbg ([…], time 7 day): 323.4 mg/dL
- Hb ([…], time 7 day): 14 g/dL
- Ht ([…], time 7 day): 43.3%
- Lym ([…], time 7 day): 78.6%
- MCH ([…], time 7 day): 20.5 pg
- MCHC ([…], time 7 day): 32.4%
- MCV ([…], time 7 day): 63.3 fL
- Mono ([…], time 7 day): 2.8%
- Neu ([…], time 7 day): 16.6%
- PT ([…], time 7 day): 13.9 s
- Plat ([…], time 7 day): 113.9 x10_4/uL
- RBC ([…], time 7 day): 684.8 x10_4/ul
- Ret ([…], time 7 day): 5.9%
- WBC ([…], time 7 day): 83.1 x10_2/uL
- APTT ([…], time 14 day): 20.3 s
- Bas ([…], time 14 day): 0.4%
- Eos ([…], time 14 day): 1%
- Fbg ([…], time 14 day): 308.2 mg/dL
- Hb ([…], time 14 day): 14.8 g/dL
- Ht ([…], time 14 day): 45.2%
- Lym ([…], time 14 day): 76.8%
- MCH ([…], time 14 day): 20.4 pg
- MCHC ([…], time 14 day): 32.7%
- MCV ([…], time 14 day): 62.2 fL
- Mono ([…], time 14 day): 2.2%
- Neu ([…], time 14 day): 18.8%
- PT ([…], time 14 day): 14.5 s
- Plat ([…], time 14 day): 111 x10_4/uL
- RBC ([…], time 14 day): 727.2 x10_4/ul
- Ret ([…], time 14 day): 3.8%
- WBC ([…], time 14 day): 90.4 x10_2/uL
- APTT ([…], time 28 day): 17.8 s
- Bas ([…], time 28 day): 0.2%
- Eos ([…], time 28 day): 1.2%
- Fbg ([…], time 28 day): 280.8 mg/dL
- Hb ([…], time 28 day): 15.4 g/dL
- Ht ([…], time 28 day): 45.7%
- Lym ([…], time 28 day): 76.4%
- MCH ([…], time 28 day): 18.9 pg
- MCHC ([…], time 28 day): 33.7%
- MCV ([…], time 28 day): 56.2 fL
- Mono ([…], time 28 day): 2%
- Neu ([…], time 28 day): 19.8%
- PT ([…], time 28 day): 14.5 s
- Plat ([…], time 28 day): 115.9 x10_4/uL
- RBC ([…], time 28 day): 813.8 x10_4/ul
- Ret ([…], time 28 day): 2.5%
- WBC ([…], time 28 day): 96.5 x10_2/uL
- KIDNEY_L ([…], time 7 day): 1 g
- KIDNEY_R ([…], time 7 day): 1 g
- KIDNEY_TOTAL ([…], time 7 day): 2.1 g
- KIDNEY_L ([…], time 14 day): 1.1 g
- KIDNEY_R ([…], time 14 day): 1.1 g
- KIDNEY_TOTAL ([…], time 14 day): 2.2 g
- KIDNEY_L ([…], time 28 day): 1.4 g
- KIDNEY_R ([…], time 28 day): 1.4 g
- KIDNEY_TOTAL ([…], time 28 day): 2.8 g
- LIVER ([…], time 7 day): 12.2 g
- LIVER ([…], time 14 day): 12.9 g
- LIVER ([…], time 28 day): 17.3 g
- A/G ([…], time 7 day): 0.8
- ALP ([…], time 7 day): 1518.2 IU/L
- ALT ([…], time 7 day): 43.2 IU/L
- AST ([…], time 7 day): 65.8 IU/L
- BUN ([…], time 7 day): 15.4 mg/dL
- CRE ([…], time 7 day): 0.2 mg/dL
- Ca ([…], time 7 day): 11.6 mg/dL
- Cl ([…], time 7 day): 104.8 meq/L
- DBIL ([…], time 7 day): 0.018 mg/dL
- GLC ([…], time 7 day): 193.8 mg/dL
- IP ([…], time 7 day): 8.1 mg/dL
- K ([…], time 7 day): 4.2 meq/L
- LDH ([…], time 7 day): 90.8 IU/L
- Na ([…], time 7 day): 143.2 meq/L
- PL ([…], time 7 day): 166.4 mg/dL
- RALB ([…], time 7 day): 2.8 g/dL
- TBIL ([…], time 7 day): 0.034 mg/dL
- TC ([…], time 7 day): 86.6 mg/dL
- TG ([…], time 7 day): 139.6 mg/dL
- TP ([…], time 7 day): 6.1 g/dL
- gamma-GTP ([…], time 7 day): 1 IU/L
- A/G ([…], time 14 day): 0.8
- ALP ([…], time 14 day): 1632.2 IU/L
- ALT ([…], time 14 day): 38.2 IU/L
- AST ([…], time 14 day): 66.4 IU/L
- BUN ([…], time 14 day): 15.6 mg/dL
- CRE ([…], time 14 day): 0.2 mg/dL
- Ca ([…], time 14 day): 10.9 mg/dL
- Cl ([…], time 14 day): 106.4 meq/L
- DBIL ([…], time 14 day): 0.016 mg/dL
- GLC ([…], time 14 day): 187.2 mg/dL
- IP ([…], time 14 day): 6.9 mg/dL
- K ([…], time 14 day): 4.2 meq/L
- LDH ([…], time 14 day): 77 IU/L
- Na ([…], time 14 day): 143.4 meq/L
- PL ([…], time 14 day): 153.4 mg/dL
- RALB ([…], time 14 day): 2.8 g/dL
- TBIL ([…], time 14 day): 0.038 mg/dL
- TC ([…], time 14 day): 72.6 mg/dL
- TG ([…], time 14 day): 126 mg/dL
- TP ([…], time 14 day): 6.1 g/dL
- gamma-GTP ([…], time 14 day): 1 IU/L
- A/G ([…], time 28 day): 0.8
- ALP ([…], time 28 day): 1089.8 IU/L
- ALT ([…], time 28 day): 37.2 IU/L
- AST ([…], time 28 day): 60.4 IU/L
- BUN ([…], time 28 day): 17.4 mg/dL
- CRE ([…], time 28 day): 0.2 mg/dL
- Ca ([…], time 28 day): 10.6 mg/dL
- Cl ([…], time 28 day): 106.8 meq/L
- DBIL ([…], time 28 day): 0.016 mg/dL
- GLC ([…], time 28 day): 186.2 mg/dL
- IP ([…], time 28 day): 6.3 mg/dL
- K ([…], time 28 day): 4.2 meq/L
- LDH ([…], time 28 day): 77.4 IU/L
- Na ([…], time 28 day): 144.8 meq/L
- PL ([…], time 28 day): 168.4 mg/dL
- RALB ([…], time 28 day): 2.9 g/dL
- TBIL ([…], time 28 day): 0.026 mg/dL
- TC ([…], time 28 day): 79.6 mg/dL
- TG ([…], time 28 day): 174 mg/dL
- TP ([…], time 28 day): 6.4 g/dL
- gamma-GTP ([…], time 28 day): 1 IU/L

Source: ChEMBL document CHEMBL3885861, “Open TG-GATES”
